Test results taken from PubChem BioAssay (NCI).
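Growth conditions: 96-well plates. Treatment: test compound, 48 hours, 5 concentrations. Analysis: linear interpolation between bracketing concentrations; unreached endpoints set to highest concentration. At the TGI there is no net growth.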

Legend:
Assay in all cases: NCI anticancer screen, dose series, 48 h
CAKI-1 renal = tested on: CAKI-1 renal
SK-MEL-2 melanoma = tested on: SK-MEL-2 melanoma
BT-549 breast = tested on: BT-549 breast
HOP-92 NSCLC = tested on: HOP-92 NSCLC
U251 CNS = tested on: U251 CNS
TK-10 renal = tested on: TK-10 renal
T-47D breast = tested on: T-47D breast
SF-539 CNS = tested on: SF-539 CNS
SK-MEL-5 melanoma = tested on: SK-MEL-5 melanoma
HCT-116 colon = tested on: HCT-116 colon
SNB-19 CNS = tested on: SNB-19 CNS
MCF7 breast = tested on: MCF7 breast
MOLT-4 leukemia = tested on: MOLT-4 leukemia
NCI-H522 lung = tested on: NCI-H522 lung
OVCAR-3 ovarian = tested on: OVCAR-3 ovarian
DU-145 prostate = tested on: DU-145 prostate
HT29 colon = tested on: HT29 colon
OVCAR-8 ovarian = tested on: OVCAR-8 ovarian
A498 renal = tested on: A498 renal
OVCAR-4 ovarian = tested on: OVCAR-4 ovarian
COLO 205 colon = tested on: COLO 205 colon
MDA-MB-231 breast = tested on: MDA-MB-231 breast
HOP-62 NSCLC = tested on: HOP-62 NSCLC
SK-OV-3 ovarian = tested on: SK-OV-3 ovarian
CCRF-CEM leukemia = tested on: CCRF-CEM leukemia
PC-3 prostate = tested on: PC-3 prostate
SW-620 colon = tested on: SW-620 colon
SF-295 CNS = tested on: SF-295 CNS
ACHN renal = tested on: ACHN renal
LOX IMVI melanoma = tested on: LOX IMVI melanoma
NCI-H460 lung = tested on: NCI-H460 lung
SNB-75 CNS = tested on: SNB-75 CNS
NCI-H23 lung = tested on: NCI-H23 lung
UACC-62 melanoma = tested on: UACC-62 melanoma
SF-268 CNS = tested on: SF-268 CNS
HS 578T breast = tested on: HS 578T breast
786-0 renal = tested on: 786-0 renal
OVCAR-5 ovarian = tested on: OVCAR-5 ovarian
KM12 colon = tested on: KM12 colon
RPMI-8226 leukemia = tested on: RPMI-8226 leukemia
RXF 393 renal = tested on: RXF 393 renal
M14 melanoma = tested on: M14 melanoma
SN12C renal = tested on: SN12C renal
IGROV1 ovarian = tested on: IGROV1 ovarian
MALME-3M melanoma = tested on: MALME-3M melanoma
NCI/ADR-RES ovarian = tested on: NCI/ADR-RES ovarian
HCT-15 colon = tested on: HCT-15 colon
MDA-MB-435 = tested on: MDA-MB-435
SK-MEL-28 melanoma = tested on: SK-MEL-28 melanoma
EKVX NSCLC = tested on: EKVX NSCLC
K-562 leukemia = tested on: K-562 leukemia
NCI-H226 lung = tested on: NCI-H226 lung
A549 NSCLC = tested on: A549 NSCLC
UO-31 renal = tested on: UO-31 renal
UACC-257 melanoma = tested on: UACC-257 melanoma

CCOc1c(OC)cc(C2c3cc4c(c(OCC)c3CC3COC(=O)C32)OCO4)cc1OC (stereo not given)
TGI (CAKI-1 renal): 55.7 µM | TGI (SK-MEL-2 melanoma): > 100 µM | TGI (BT-549 breast): 64 µM | TGI (HOP-92 NSCLC): > 100 µM | TGI (U251 CNS): 11.6 µM | TGI (TK-10 renal): 69.6 µM | TGI (T-47D breast): > 100 µM | TGI (SF-539 CNS): 4.91 µM | TGI (SK-MEL-5 melanoma): 14.5 µM | TGI (HCT-116 colon): 11.5 µM | TGI (SNB-19 CNS): > 100 µM | TGI (MCF7 breast): > 100 µM | TGI (MOLT-4 leukemia): 7.69 µM | TGI (NCI-H522 lung): 16.8 µM | TGI (OVCAR-3 ovarian): 5.14 µM | TGI (DU-145 prostate): 12.1 µM | TGI (HT29 colon): 10.4 µM | TGI (OVCAR-8 ovarian): 6.38 µM | TGI (A498 renal): 67.4 µM | TGI (OVCAR-4 ovarian): > 100 µM | TGI (COLO 205 colon): 6.98 µM | TGI (MDA-MB-231 breast): 6.47 µM | TGI (HOP-62 NSCLC): 17.8 µM | TGI (SK-OV-3 ovarian): > 100 µM | TGI (CCRF-CEM leukemia): 30.1 µM | TGI (PC-3 prostate): > 100 µM | TGI (SW-620 colon): > 100 µM | TGI (SF-295 CNS): 3.97 µM | TGI (ACHN renal): 20.9 µM | TGI (LOX IMVI melanoma): 14 µM | TGI (NCI-H460 lung): > 100 µM | TGI (SNB-75 CNS): > 100 µM | TGI (NCI-H23 lung): 5.9 µM | TGI (UACC-62 melanoma): 2.27 µM | TGI (SF-268 CNS): 92.6 µM | TGI (HS 578T breast): 21.9 µM | TGI (786-0 renal): 22.2 µM | TGI (OVCAR-5 ovarian): 15.9 µM | TGI (KM12 colon): 11.3 µM | TGI (RPMI-8226 leukemia): 59.3 µM | TGI (RXF 393 renal): > 100 µM | TGI (M14 melanoma): 43.3 µM | TGI (SN12C renal): 6.9 µM | TGI (IGROV1 ovarian): 80.5 µM | TGI (MALME-3M melanoma): 79.8 µM | TGI (NCI/ADR-RES ovarian): 7.17 µM | TGI (HCT-15 colon): 2.68 µM | TGI (MDA-MB-435): 0.898 µM | TGI (SK-MEL-28 melanoma): > 100 µM | TGI (EKVX NSCLC): > 100 µM | TGI (K-562 leukemia): 19.4 µM | TGI (NCI-H226 lung): 46.9 µM | TGI (A549 NSCLC): 14.2 µM | TGI (UO-31 renal): 27.3 µM | TGI (UACC-257 melanoma): 49.1 µM
